Values of other authors, collected in patent publication US20100049492A1, “METHOD AND APPARATUS FOR MODELING SKIN SENSITIZATION” (Entelos, Inc., priority 2006, published 2010).

Tested on: lymph node (LN) proliferation
Details: categories based on data available in the public domain

Row | SMILES | chemical category (skin sensitizer strength)
1 | Oc1ccc(O)cc1 [hydroquinone] | strong sensitizers
2 | Nc1ccc(C(=O)O)cc1 [PABA] | non-sensitizers
3 | CCO/C=C1\N=C(c2ccccc2)OC1=O [oxazalone] | strong sensitizers
4 | CCCCCCCC/C=C\CCCCCCCC(=O)OCCOCC(OCCO)C1OCC(OCCO)C1OCCO (stereo not drawn) [Tween 80] | non-sensitizers
5 | CC=Cc1ccc(O)c(OC)c1 [isoeugenol] | moderate sensitizers
6 | O=C/C=C/c1ccccc1 [cinnamic aldehyde] | moderate sensitizers
